Consider 21 molecules from ChEMBL document CHEMBL1133917, “Synthesis and pharmacology of modified amidine isoxazoline glycoprotein IIb/IIIa receptor antagonists” (Bioorg Med Chem Lett, 2001).

Format in all cases: functional
The species named for one assay is Homo sapiens. The assay is described as follows: Concentration required for maximal in vitro inhibition of aggregation of human platelet rich plasma (hPRP).
The test system of assay [1] is Canis familiaris. As to the kind of experiment: Percent inhibition of aggregation of platelet rich plasma at a dose of 0.025 mg/kg, iv, in canine model after 30 min. The following applies: Canis lupus familiaris, 0.5 h.
Assay [2] relates to Canis familiaris. As to the kind of experiment: Percent inhibition of aggregation of platelet rich plasma at a dose of 0.025 mg/kg, iv, in canine model at 5 hrs. The note with it: Canis lupus familiaris.
Assay [3] relates to Canis familiaris. The assay is described as follows: Percent inhibition of ex vivo platelet aggregation of rich plasma at a dose of 0.025 mg/kg, iv, in canine model at 5 hrs. The following applies: Canis lupus familiaris.
Assay [4] has as its system Canis familiaris. The assay is described as follows: Percent inhibition of aggregation of platelet rich plasma at a dose of 0.025 mg/kg, iv, in canine model at 24 hr. The note with it: Canis lupus familiaris.

In general, IC50 refers to the point on the concentration scale where inhibition reaches its midpoint. In turn, `N=C(N)c1ccc(C2=NOC(CC(=O)NCCC(=O)O)C2)cc1` (centres undefined) had an IC50 in the assay listed under Homo sapiens of 240 nM.

The molecule `CCCCCNC(=N)c1ccc(C2=NOC(CC(=O)NCCC(=O)O)C2)cc1` (centres undefined) showed an IC50 in the assay listed under Homo sapiens of 300 nM. In the assay listed under Homo sapiens, `Cc1cccc(S(=O)(=O)N[C@@H](CNC(=O)C[C@H]2CC(c3ccc(C(=N)N)cc3)=NO2)C(=O)O)c1` displayed an IC50 of 50 nM. Same read-out and setting: the figure for `N/C(=N/Cc1cccc(F)c1)c1ccc(C2=NOC(CC(=O)NCCC(=O)O)C2)cc1` (centres undefined) is 12 nM; for `COc1ccccc1CNC(=N)c1ccc(C2=NOC(CC(=O)NCCC(=O)O)C2)cc1` (centres undefined) it is 32 nM; for `CCCNC(=N)c1ccc(C2=NOC(CC(=O)NCCC(=O)O)C2)cc1` (centres undefined) it is 120 nM. Same read-out and setting: under `Cc1ccccc1S(=O)(=O)N[C@@H](CNC(=O)C[C@H]1CC(c2ccc(C(=N)N)cc2)=NO1)C(=O)O` stands 54 nM; under `CCCCNC(=N)c1ccc(C2=NO[C@@H](CC(=O)NC[C@H](NS(=O)(=O)c3ccccc3C)C(=O)O)C2)cc1`, 16 nM. Broadly, the inhibition in vivo is the drop in the measured response relative to a control, in per cent. High values mean strong suppression, low ones little suppression. In the case of `CCNC(=N)c1ccc(C2=NOC(CC(=O)NCCC(=O)O)C2)cc1` (centres undefined), the inhibition in vivo at 0.025 mg/kg in the assay with Canis familiaris [1] was 70%; with Canis familiaris [2], 20%. In the case of `N/C(=N/Cc1ccccc1)c1ccc(C2=NOC(CC(=O)NCCC(=O)O)C2)cc1` (centres undefined), the IC50 in the assay filed under Homo sapiens turned out to be 200 nM. With `CCCCNC(=N)c1ccc(C2=NOC(CC(=O)NCCC(=O)O)C2)cc1` (centres undefined), the IC50 in the assay listed under Homo sapiens was found to be 20 nM. The same measure, in the same setting: under `N=C(N)c1ccc(C2=NO[C@@H](CC(=O)NCCC(=O)O)C2)cc1` stands 60 nM; under `N/C(=N/Cc1ccccc1)c1ccc(C2=NO[C@@H](CC(=O)NCCC(=O)O)C2)cc1`, 87 nM.

In turn, `CCCCOC(=O)N[C@@H](CNC(=O)C[C@H]1CC(c2ccc(C(=N)NCC)cc2)=NO1)C(=O)O` came in with a concentration for half-maximal inhibition (IC50) in the assay listed under Homo sapiens of 82 nM. In turn, `Cc1noc(C)c1S(=O)(=O)N[C@@H](CNC(=O)C[C@H]1CC(c2ccc(C(=N)NCc3cccc(F)c3)cc2)=NO1)C(=O)O` displayed a concentration for half-maximal inhibition (IC50) in the assay filed under Homo sapiens of 55 nM. As to `CC(C)CCNC(=N)c1ccc(C2=NOC(CC(=O)NCCC(=O)O)C2)cc1` (centres undefined), in the assay listed under Homo sapiens, half-maximal inhibition (IC50) required 1300 nM.

`CCNC(=N)c1ccc(C2=NO[C@@H](CC(=O)NC[C@H](NS(=O)(=O)c3cccc(C)c3)C(=O)O)C2)cc1`: in the assay filed under Homo sapiens, the concentration for half-maximal inhibition (IC50) is 51 nM. In the assay on Canis familiaris [3], `CCNC(=N)c1ccc(C2=NO[C@@H](CC(=O)NC[C@H](NS(=O)(=O)c3ccccc3C)C(=O)O)C2)cc1` displayed an inhibition in vivo at 0.025 mg/kg of 40%. The same molecule registered an IC50 in the assay filed under Homo sapiens of 43 nM.

In the assay listed under Homo sapiens, `CCCCNC(=N)c1ccc(C2=NO[C@@H](CC(=O)NC[C@H](NC(=O)OCCCC)C(=O)O)C2)cc1` displayed an IC50 of 62 nM. In the assay with Canis familiaris [4], `COc1ccccc1CNC(=N)c1ccc(C2=NO[C@@H](CC(=O)NC[C@H](NS(=O)(=O)c3ccccc3C)C(=O)O)C2)cc1` gave an inhibition in vivo at 0.025 mg/kg of 80%. 40 nM corresponded to half-maximal inhibition in the assay listed under Homo sapiens (IC50). On to `COc1ccccc1CNC(=N)c1ccc(C2=NO[C@@H](CC(=O)NC[C@H](NS(=O)(=O)c3c(C)noc3C)C(=O)O)C2)cc1`, for which, in the assay listed under Homo sapiens, half-maximal inhibition (IC50) required 55 nM.
